Experimental data as given in patent US20260347373A1, “HETEROCYCLIC COMPOUNDS, COMPOSITIONS THEREOF, AND METHODS OF TREATMENT THEREWITH” (BeOne Medicines I GmbH, priority 2023, published 2026).
Read-outs that look alike come from different tables or passages of the source.

Tests used:
[1] = molecular target: KRAS G12D (Homo sapiens, UniProt P01116, G12D); assay: KRAS G12D Probe Displacement Assay (TR-FRET, GDP-loaded); format: binding
From the text: (§1) The synthetic routes of probe 1 and 2, which have been disclosed in PCT/CN2022/070676, are hereby incorporated herein.

[2] = molecular target: WT KRAS (Homo sapiens, UniProt P01116); assay: KRAS WT Probe Displacement Assay (TR-FRET, GDP-loaded); format: binding
Chain of WT KRAS (P01116 1-188 isoform P01116-2): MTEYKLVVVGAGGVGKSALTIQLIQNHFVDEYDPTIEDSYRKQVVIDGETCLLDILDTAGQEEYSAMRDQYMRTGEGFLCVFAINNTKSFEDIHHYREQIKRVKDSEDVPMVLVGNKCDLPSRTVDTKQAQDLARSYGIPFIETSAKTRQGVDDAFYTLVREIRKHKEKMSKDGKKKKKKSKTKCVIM
From the text: as §1

[3] = KRAS^G12D Probe Displacement Assay IC50, KRAS G12D
[4] = KRAS^WT Probe Displacement Assay IC50, KRAS WT
[5] = KRAS G12D, read-out: KRAS^G12D Probe Displacement Assay IC50
[6] = KRAS WT, read-out: KRAS^WT Probe Displacement Assay IC50

Chain of KRAS G12D (P01116 1-188 isoform P01116-2 G12D): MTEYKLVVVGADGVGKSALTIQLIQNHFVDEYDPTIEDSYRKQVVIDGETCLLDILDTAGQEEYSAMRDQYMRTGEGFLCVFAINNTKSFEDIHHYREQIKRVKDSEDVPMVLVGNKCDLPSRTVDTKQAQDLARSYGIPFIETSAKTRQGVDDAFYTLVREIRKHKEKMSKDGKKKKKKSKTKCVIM

Row | SMILES | IC50 [1, 3] [nM] | IC50 [2, 4] [nM] | IC50 [1, 5] [nM] | IC50 [2, 6] [nM]
1 | Cc1cc(N)cc(-c2nc3c4c(nc(OCC5(CN6CC=CC6)CC5)nc4c2F)N2C[C@H]4CC[C@H](N4)[C@H]2CCO3)c1C(F)(F)F [Example 111, 3-((6aR,7S,10R)-13-((1-((2,5-dihydro-1H-pyrrol-1-yl)methyl)cyclopropyl)methoxy)-1-fluoro-5,6,6a,7,8,9,10,11-octahydro-4-oxa-3,11a,12,14,15-pentaaza-7,10-methanocyclohepta [4,5]cycloocta [1,2,3-de]naphthalen-2-yl)-5-methyl-4-(trifluoromethyl) aniline] | < 0.3 | 3 to 1000 | – | –
2 | Cc1cc(N)cc(-c2nc3c4c(nc(OCC5(CN6CC=CCC6)CC5)nc4c2F)N2C[C@H]4CC[C@H](N4)[C@H]2CCO3)c1C(F)(F)F [Example 112, 3-((6aR,7S,10R)-13-((1-((3,6-dihydropyridin-1(2H)-yl)methyl)cyclopropyl)methoxy)-1-fluoro-5,6,6a, 7,8,9,10,11-octahydro-4-oxa-3,11a,12,14,15-pentaaza-7,10-methanocyclohepta [4,5]cycloocta [1,2,3-de]naphthalen-2-yl)-5-methyl-4-(trifluoromethyl) aniline] | < 0.3 | 3 to 1000 | – | –
3 | Cc1cc(N)cc(-c2nc3c4c(nc(OCC5(CN6CCC(C(F)(F)F)CC6)CC5)nc4c2F)N2C[C@H]4CC[C@H](N4)[C@H]2CCO3)c1C(F)(F)F [Example 113, 3-((6aR,7S,10R)-1-fluoro-13-((1-((4-(trifluoromethyl)piperidin-1-yl)methyl)cyclopropyl)methoxy)-5,6,6a,7,8,9,10,11-octahydro-4-oxa-3,11a,12,14,15-pentaaza-7,10-methanocyclohepta [4,5]cycloocta [1,2,3-de]naphthalen-2-yl)-5-methyl-4-(trifluoromethyl) aniline] | < 0.3 | 0.3 to 3 | – | –
4 | Cc1cc(N)cc(-c2nc3c4c(nc(OCC5(CN6CCC(O)(C(F)(F)F)CC6)CC5)nc4c2F)N2C[C@H]4CC[C@H](N4)[C@H]2CCO3)c1C(F)(F)F [Example 114, 1-((1-((((6aR,7S,10R)-2-(5-amino-3-methyl-2-(trifluoromethyl)phenyl)-1-fluoro-5,6,6a,7,8,9,10,11-octahydro-4-oxa-3,11a,12,14,15-pentaaza-7,10-methanocyclohepta [4,5]cycloocta [1,2,3-de]naphthalen-13-yl)oxy)methyl)cyclopropyl)methyl)-4-(trifluoromethyl) piperidin-4-ol] | – | – | < 0.3 | 0.3 to 3
5 | Cc1cc(N)cc(-c2nc3c4c(nc(OCC5(CN6CCC(C)(O)CC6)CC5)nc4c2F)N2C[C@H]4CC[C@H](N4)[C@H]2CCO3)c1C(F)(F)F [Example 115, 1-((1-((((6aR,7S, 10R)-2-(5-amino-3-methyl-2-(trifluoromethyl)phenyl)-1-fluoro-5,6,6a,7,8,9,10,11-octahydro-4-oxa-3, 11a,12,14,15-pentaaza-7,10-methanocyclohepta [4,5]cycloocta[1,2,3-de]naphthalen-13-yl)oxy)methyl)cyclopropyl)methyl)-4-methylpiperidin-4-ol] | – | – | < 0.3 | 0.3 to 3
6 | Cc1cc(N)cc(-c2nc3c4c(nc(OCC5(CN6CCCC(O)(C(F)(F)F)C6)CC5)nc4c2F)N2C[C@H]4CC[C@H](N4)[C@H]2CCO3)c1C(F)(F)F (stereo partly drawn) [Example 117, 1-((1-((((6aR,7S,10R)-2-(5-amino-3-methyl-2-(trifluoromethyl)phenyl)-1-fluoro-5,6,6a,7,8,9,10,11-octahydro-4-oxa-3,11a,12,14,15-pentaaza-7,10-methanocyclohepta [4,5]cycloocta [1,2,3-de]naphthalen-13-yl)oxy)methyl)cyclopropyl)methyl)-3-(trifluoromethyl) piperidin-3-ol] | – | – | < 0.3 | 3 to 1000
7 | Cc1cc(N)cc(-c2nc3c4c(nc(OCC5(CN6CCCC(C(F)(F)F)C6)CC5)nc4c2F)N2C[C@H]4CC[C@H](N4)[C@H]2CCO3)c1C(F)(F)F (stereo partly drawn) [Example 118, 3-((6aR,7S,10R)-1-fluoro-13-((1-((3-(trifluoromethyl)piperidin-1-yl)methyl)cyclopropyl)methoxy)-5,6,6a,7,8,9,10,11-octahydro-4-oxa-3,11a,12,14,15-pentaaza-7,10-methanocyclohepta [4,5]cycloocta [1,2,3-de]naphthalen-2-yl)-5-methyl-4-(trifluoromethyl)aniline] | – | – | < 0.3 | 3 to 1000
8 | COC1CCCN(CC2(COc3nc4c5c(nc(-c6cc(N)cc(C)c6C(F)(F)F)c(F)c5n3)OCC[C@@H]3[C@@H]5CC[C@H](CN43)N5)CC2)C1 (stereo partly drawn) [Example 119, 3-((6aR,7S,10R)-1-fluoro-13-((1-((3-methoxypiperidin-1-yl)methyl)cyclopropyl)methoxy)-5,6,6a,7,8,9,10,11-octahydro-4-oxa-3,11a,12,14,15-pentaaza-7,10-methanocyclohepta [4,5]cycloocta[1,2,3-de]naphthalen-2-yl)-5-methyl-4-(trifluoromethyl) aniline] | < 0.3 | 3 to 1000 | – | –
9 | Cc1cc(N)cc(-c2nc3c4c(nc(OCC5(CN6CCOC7(CC7)C6)CC5)nc4c2F)N2C[C@H]4CC[C@H](N4)[C@H]2CCO3)c1C(F)(F)F [Example 120, 3-((6aR,7S,10R)-13-((1-((4-oxa-7-azaspiro[2.5]octan-7-yl)methyl)cyclopropyl)methoxy)-1-fluoro-5,6,6a,7,8,9,10,11-octahydro-4-oxa-3,11a,12,14,15-pentaaza[7,10]methanocyclohepta [4,5]cycloocta[1,2,3-de]naphthalen-2-yl)-5-methyl-4-(trifluoromethyl)aniline] | – | – | < 0.3 | 0.3 to 3
10 | Cc1cc(N)cc(-c2nc3c4c(nc(OCC5(CN6CCOC7(CCC7)C6)CC5)nc4c2F)N2C[C@H]4CC[C@H](N4)[C@H]2CCO3)c1C(F)(F)F [Example 121, 3-((6aR,7S,10R)-13-((1-((5-oxa-8-azaspiro[3.5]nonan-8-yl)methyl)cyclopropyl)methoxy)-1-fluoro-5,6,6a,7,8,9,10,11-octahydro-4-oxa-3,11a,12,14,15-pentaaza[7,10]methanocyclohepta [4,5]cycloocta[1,2,3-de]naphthalen-2-yl)-5-methyl-4-(trifluoromethyl)aniline] | – | – | < 0.3 | 3 to 1000
11 | Cc1cc(N)cc(-c2nc3c4c(nc(OCC5(CN6CCC[C@H]6C)CC5)nc4c2F)N2C[C@H]4CC[C@H](N4)[C@H]2CCO3)c1C(F)(F)F [Example 122, 3-((6aR,7S,10R)-1-fluoro-13-((1-(((R)-2-methylpyrrolidin-1-yl)methyl)cyclopropyl)methoxy)-5,6,6a,7,8,9, 10,11-octahydro-4-oxa-3,11a,12,14,15-pentaaza-7,10-methanocyclohepta [4,5]cycloocta [1,2,3-de]naphthalen-2-yl)-5-methyl-4-(trifluoromethyl)aniline] | – | – | < 0.3 | 3 to 1000
12 | Cc1cc(N)cc(-c2nc3c4c(nc(OCC5(CN6CCC[C@@H]6C)CC5)nc4c2F)N2C[C@H]4CC[C@H](N4)[C@H]2CCO3)c1C(F)(F)F [Example 123, 3-((6aR,7S,10R)-1-fluoro-13-((1-(((S)-2-methylpyrrolidin-1-yl)methyl)cyclopropyl)methoxy)-5,6,6a, 7,8,9,10,11-octahydro-4-oxa-3,11a,12,14,15-pentaaza-7,10-methanocyclohepta [4,5]cycloocta [1,2,3-de]naphthalen-2-yl)-5-methyl-4-(trifluoromethyl)aniline] | – | – | < 0.3 | 3 to 1000
13 | COC1CN(C)CC(C)(COc2nc3c4c(nc(-c5cc(N)cc(C)c5C(F)(F)F)c(F)c4n2)OCC[C@@H]2[C@@H]4CC[C@H](CN32)N4)C1 (stereo partly drawn) [Example 126, 3-((6aR,7S,10R)-1-fluoro-13-((5-methoxy-1,3-dimethylpiperidin-3-yl)methoxy)-5,6,6a,7,8,9,10,11-octahydro-4-oxa-3,11a,12,14,15-pentaaza-7,10-methanocyclohepta[4,5]cycloocta[1,2,3-de]naphthalen-2-yl)-5-methyl-4-(trifluoromethyl)aniline] | – | – | 0.3 to 3 | 3 to 1000
14 | Cc1cc(N)cc(-c2nc3c4c(nc(OC[C@@H]5OC[C@H]5N(C)C)nc4c2F)N2C[C@H]4CC[C@H](N4)[C@H]2CCO3)c1C(F)(F)F [Example 130, (2R,3R)-2-((((6aR,7S,10R)-2-(5-amino-3-methyl-2-(trifluoromethyl)phenyl)-1-fluoro-5,6,6a,7,8,9,10,11-octahydro-4-oxa-3,11a,12,14,15-pentaaza-7,10-methanocyclohepta[4,5]cycloocta [1,2,3-de]naphthalen-13-yl)oxy)methyl)-N,N-dimethyloxetan-3-amine] | – | – | 0.3 to 3 | 3 to 1000
15 | Cc1cc(N)cc(-c2nc3c4c(nc(OC[C@]5(O)COC[C@H]5N(C)C)nc4c2F)N2C[C@H]4CC[C@H](N4)[C@H]2CCO3)c1C(F)(F)F [Example 131, (3R,4R)-3-((((6aR,7S,10R)-2-(5-amino-3-methyl-2-(trifluoromethyl)phenyl)-1-fluoro-5,6,6a,7,8,9,10,11-octahydro-4-oxa-3,11a,12,14,15-pentaaza-7,10-methanocyclohepta[4,5]cycloocta [1,2,3-de]naphthalen-13-yl)oxy)methyl)-4-(dimethylamino)tetrahydrofuran-3-ol] | – | – | 0.3 to 3 | 3 to 1000
16 | Cc1cc(N)cc(-c2nc3c4c(nc(OCC5(F)COCC5N(C)C)nc4c2F)N2C[C@H]4CC[C@H](N4)[C@H]2CCO3)c1C(F)(F)F (stereo partly drawn) [Example 132, 4-((((6aR,7S,10R)-2-(5-amino-3-methyl-2-(trifluoromethyl)phenyl)-1-fluoro-5,6,6a,7,8,9,10,11-octahydro-4-oxa-3,11a,12,14,15-pentaaza-7,10-methanocyclohepta[4,5]cycloocta [1,2,3-de]naphthalen-13-yl)oxy)methyl)-4-fluoro-N,N-dimethyltetrahydrofuran-3-amine] | – | – | 0.3 to 3 | 3 to 1000
